In US7378375B1, “Substituted pyridine herbicides” (Syngenta Crop Protection, Inc., priority 2000, dated 2008):

Key:
[1] = tested on: Monocotyledonous and dicotyledonous test plants; assay: Herbicidal action before emergence of the plants (pre-emergence action), greenhouse pot test, 9-level rating after 4 weeks; type: in vivo; conditions: 250 g/ha, rated after 4 weeks, 9-level scale
In short: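 Compounds applied pre-emergence as a spray (500 l water/ha) of aqueous suspension or emulsion onto soil immediately after sowing mono- and dicot species in pots. Greenhouse-grown; damage rated after 4 weeks on a 9-level scale (1=complete damage, 9=no effect).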

[2] = tested on: Monocotyledonous and dicotyledonous test plants; assay: Post-emergence herbicidal action, greenhouse pot test, sprayed at the 2- to 3-leaf stage, 9-level rating after 2 to 3 weeks; type: in vivo; conditions: 250 g/ha, rated after 2 to 3 weeks, 9-level scale
In short: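 Plants grown in standard soil in pots; test substances sprayed at the 2- to 3-leaf stage at optimum dosage (500 l water/ha) as aqueous suspension or emulsion from formulated concentrates. Plants then kept in the greenhouse under optimum conditions; rated after 2 to 3 weeks on a 9-level scale (1=complete damage, 9=no effect).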

CC(=O)OCc1nc(C(F)(F)F)ccc1C(=O)C1=C(O)C2CCC(C2)C1=O.[K+] (centres unmarked)
melting point: 145 to 150 °C

COCc1nc(C(F)(F)F)ccc1C(=O)c1c(C)nn(C)c1O [1.001]
melting point: 138 to 140 °C

COCCOCc1nc(C(F)(F)F)ccc1C(=O)C1=C(O)C(C)(C)C(=O)C(C)(C)C1=O [1.012]
melting point: 99 to 100 °C

O=C(C1=C(O)C2CCC(C2)C1=O)c1ccc(C(F)(F)F)nc1COCC1CO1 (centres unmarked) [1.015]
melting point: 54 to 56 °C

C#CCOCc1nc(C(F)(F)F)ccc1C(=O)C1=C(O)C2CCC(C2)C1=O (centres unmarked) [1.016]
melting point: 71 to 74 °C

COCOCc1nc(C(F)(F)F)ccc1C(=O)C1=C(O)C2CCC(C2)C1=O (centres unmarked) [1.017]
melting point: 95 to 98 °C

C=CCOCc1nc(C(F)(F)F)ccc1C(=O)C1=C(O)C2CCC(C2)C1=O (centres unmarked) [1.018]
melting point: 53 to 55 °C

COCc1nc(C(F)(F)F)ccc1C(=O)c1cnn(C)c1O [1.019]
melting point: 32 to 34 °C

CCOCc1nc(C(F)(F)F)ccc1C(=O)c1cnn(C)c1O [1.020]
melting point: 32 to 33 °C

CCOCCOCc1nc(C(F)(F)F)ccc1C(=O)c1cnn(C)c1O [1.022]
melting point: 38 to 39 °C

COc1ccccc1OCc1nc(C(F)(F)F)ccc1C(=O)C1=C(O)C2CCC(C2)C1=O (centres unmarked) [1.028]
melting point: 113 to 115 °C

COC(=O)COCc1nc(C(F)(F)F)ccc1C(=O)C1=C(O)C2CCC(C2)C1=O (centres unmarked) [1.031]
melting point: 106 to 107 °C

CC(=O)OCCOCc1nc(C(F)(F)F)ccc1C(=O)C1=C(O)C2CCC(C2)C1=O (centres unmarked) [1.050]
melting point: 90 to 93 °C

CCCOCCOCc1nc(C(F)(F)F)ccc1C(=O)C1=C(O)C2CCC(C2)C1=O (centres unmarked) [1.052]
melting point: 41 to 43 °C

O=C(OCCOCc1nc(C(F)(F)F)ccc1C(=O)C1=C(OC(=O)c2ccccc2)C2CCC(C2)C1=O)c1ccccc1 (centres unmarked) [1.055]
melting point: 96 to 98 °C

CC(C)(C)C(=O)OC1=C(C(=O)c2ccc(C(F)(F)F)nc2COCCO)C(=O)C2CCC1C2 (centres unmarked) [1.059]
melting point: 79 to 81 °C

O=C(C1=C(O)C2CCC(C2)C1=O)c1ccc(C(F)(F)F)nc1COC1COC1 (centres unmarked) [1.065]
melting point: 102 to 105 °C

O=C(C1=C(O)C2CCC(C2)C1=O)c1ccc(C(F)(F)F)nc1COCCOCC(F)(F)F (centres unmarked) [1.066]
melting point: 40 to 44 °C

O=C(C1=C(O)C2CCC(C2)C1=O)c1ccc(C(F)(F)F)nc1COCc1ccccc1 (centres unmarked) [1.068]
melting point: 68 to 69 °C

O=C(C1=C(O)C2CCC(C2)C1=O)c1ccc(C(F)(F)F)nc1COCCCOCc1ccccc1 (centres unmarked) [1.069]
melting point: 78 to 80 °C

COCCOCc1nc(C(F)(F)F)ccc1C(=O)C1C(=O)CCC2(CC2)C1=O (centres unmarked) [1.070]
melting point: 40 to 42 °C

O=C(c1ccc(C(F)(F)F)nc1COCC1CCCO1)C1C(=O)C2CCC(C2)C1=O (centres unmarked) [1.073]
melting point: 46 to 47 °C

CC1(C)C(=O)C(C(=O)c2ccc(C(F)(F)F)nc2COCc2ccccc2)C(=O)C(C)(C)C1=O [1.076]
melting point: 75 to 76 °C

O=C(c1ccc(C(F)(F)F)nc1COCCCl)C1C(=O)C2CCC(C2)C1=O (centres unmarked) [1.080]
melting point: 63 to 64 °C

COCCOCc1nc(C(F)(F)F)ccc1C(=O)C1=C(O)CC(C)CC1=O (centres unmarked) [1.082]
melting point: 76 to 78 °C

CN(Cc1nc(C(F)(F)F)ccc1C(=O)C1=C(O)C2CCC(C2)C1=O)S(C)(=O)=O (centres unmarked) [1.090]
melting point: 149 to 150 °C

CN(Cc1nc(C(F)(F)F)ccc1C(=O)c1cnn(C)c1O)S(C)(=O)=O [1.091]
melting point: 110 to 112 °C

COCCCOCc1nc(C(F)(F)F)ccc1C(=O)C1=C(O)C2CCC(C2)C1=O (centres unmarked) [A846-B52]
Pre-emergence action rating, Abutilon [1]: 2
Pre-emergence action rating, Amaranthus [1]: 1
Pre-emergence action rating, Chenop. [1]: 1
Pre-emergence action rating, Digitaria [1]: 1
Pre-emergence action rating, Echino. [1]: 1
Pre-emergence action rating, Panicum [1]: 1
Post-emergence action rating, Abutilon [2]: 2
Post-emergence action rating, Amaranth [2]: 2
Post-emergence action rating, Chenop. [2]: 2
Post-emergence action rating, Digitaria [2]: 2
Post-emergence action rating, Echino. [2]: 2
Post-emergence action rating, Ipopur. [2]: 1
Post-emergence action rating, Panicum [2]: 1
Post-emergence action rating, Xanth. [2]: 2

O=C(C1=C(O)C2CCC(C2)C1=O)c1ccc(C(F)(F)F)nc1COCCCO (centres unmarked) [A847-B52]
Pre-emergence action rating, Abutilon [1]: 4
Pre-emergence action rating, Amaranthus [1]: 1
Pre-emergence action rating, Chenop. [1]: 4
Pre-emergence action rating, Digitaria [1]: 3
Pre-emergence action rating, Echino. [1]: 2
Pre-emergence action rating, Panicum [1]: 1
Post-emergence action rating, Abutilon [2]: 2
Post-emergence action rating, Amaranth [2]: 3
Post-emergence action rating, Chenop. [2]: 1
Post-emergence action rating, Digitaria [2]: 2
Post-emergence action rating, Echino. [2]: 1
Post-emergence action rating, Ipopur. [2]: 4
Post-emergence action rating, Panicum [2]: 1
Post-emergence action rating, Xanth. [2]: 2

O=C(C1=C(O)C2CCC(C2)C1=O)c1ccc(C(F)(F)F)nc1COCC1CCCO1 (centres unmarked) [A848-B52]
Pre-emergence action rating, Abutilon [1]: 7
Pre-emergence action rating, Amaranthus [1]: 1
Pre-emergence action rating, Chenop. [1]: 1
Pre-emergence action rating, Digitaria [1]: 1
Pre-emergence action rating, Echino. [1]: 1
Pre-emergence action rating, Panicum [1]: 1
Post-emergence action rating, Abutilon [2]: 2
Post-emergence action rating, Amaranth [2]: 1
Post-emergence action rating, Chenop. [2]: 1
Post-emergence action rating, Digitaria [2]: 2
Post-emergence action rating, Echino. [2]: 2
Post-emergence action rating, Ipopur. [2]: 2
Post-emergence action rating, Panicum [2]: 2
Post-emergence action rating, Xanth. [2]: 2

N#CCCOCc1nc(C(F)(F)F)ccc1C(=O)C1=C(O)C2CCC(C2)C1=O (centres unmarked) [A849-B52]
Pre-emergence action rating, Abutilon [1]: 2
Pre-emergence action rating, Amaranthus [1]: 1
Pre-emergence action rating, Chenop. [1]: 1
Pre-emergence action rating, Digitaria [1]: 2
Pre-emergence action rating, Echino. [1]: 2
Pre-emergence action rating, Panicum [1]: 1
Post-emergence action rating, Abutilon [2]: 2
Post-emergence action rating, Amaranth [2]: 2
Post-emergence action rating, Chenop. [2]: 2
Post-emergence action rating, Digitaria [2]: 2
Post-emergence action rating, Echino. [2]: 3
Post-emergence action rating, Ipopur. [2]: 2
Post-emergence action rating, Panicum [2]: 2
Post-emergence action rating, Xanth. [2]: 2

O=C(C1=C(O)C2CCC(C2)C1=O)c1ccc(C(F)(F)F)nc1COCCCl (centres unmarked) [A850-B52]
Pre-emergence action rating, Abutilon [1]: 1
Pre-emergence action rating, Amaranthus [1]: 2
Pre-emergence action rating, Chenop. [1]: 1
Pre-emergence action rating, Digitaria [1]: 2
Pre-emergence action rating, Echino. [1]: 1
Pre-emergence action rating, Panicum [1]: 1
Post-emergence action rating, Abutilon [2]: 2
Post-emergence action rating, Amaranth [2]: 2
Post-emergence action rating, Chenop. [2]: 1
Post-emergence action rating, Digitaria [2]: 2
Post-emergence action rating, Echino. [2]: 2
Post-emergence action rating, Ipopur. [2]: 2
Post-emergence action rating, Panicum [2]: 2
Post-emergence action rating, Xanth. [2]: 2

O=C(C1=C(O)C2CCC(C2)C1=O)c1ccc(C(F)(F)F)nc1COC1COCOC1 (centres unmarked) [A851-B52]
Pre-emergence action rating, Abutilon [1]: 1
Pre-emergence action rating, Amaranthus [1]: 1
Pre-emergence action rating, Chenop. [1]: 1
Pre-emergence action rating, Digitaria [1]: 1
Pre-emergence action rating, Echino. [1]: 1
Pre-emergence action rating, Panicum [1]: 1
Post-emergence action rating, Abutilon [2]: 3
Post-emergence action rating, Amaranth [2]: 2
Post-emergence action rating, Chenop. [2]: 1
Post-emergence action rating, Digitaria [2]: 3
Post-emergence action rating, Echino. [2]: 4
Post-emergence action rating, Ipopur. [2]: 3
Post-emergence action rating, Panicum [2]: 3
Post-emergence action rating, Xanth. [2]: 3

O=C(C1=C(O)C2CCC(C2)C1=O)c1ccc(C(F)(F)F)nc1COCC1COCO1 (centres unmarked) [A852-B52]
Pre-emergence action rating, Abutilon [1]: 4
Pre-emergence action rating, Amaranthus [1]: 1
Pre-emergence action rating, Chenop. [1]: 2
Pre-emergence action rating, Digitaria [1]: 1
Pre-emergence action rating, Echino. [1]: 1
Pre-emergence action rating, Panicum [1]: 1
Post-emergence action rating, Abutilon [2]: 3
Post-emergence action rating, Amaranth [2]: 3
Post-emergence action rating, Chenop. [2]: 1
Post-emergence action rating, Digitaria [2]: 4
Post-emergence action rating, Echino. [2]: 4
Post-emergence action rating, Ipopur. [2]: 3
Post-emergence action rating, Panicum [2]: 3
Post-emergence action rating, Xanth. [2]: 3
